Residues, ends and D or L forms follow the SMILES beside them. *: point of attachment. Boc = CC(C)(C)OC(=O)*
Work on `O=C1Cc2c([nH]c3ccc(I)cc23)-c2ncccc2N1` yielded a melting point of over 330 °C.
With `COC(=O)c1ccc(Cc2cccc3ccc(N)cc23)c(OC)c1` the melting point was 138 to 140 °C.
Molecule `COc1ccc(CONC(=O)[C@@H](C(C)C)N(Cc2cccnc2)S(=O)(=O)c2ccc(OC)cc2)cc1` has a melting point of 45 to 53 °C.
For `COc1ccc(C2=C(c3ccc(O)cc3)CCCc3cc(OCc4ccccc4)ccc32)cc1`, the melting point was 173 to 175 °C.
Work on `CC(C)(C)c1ccc(N2C[C@@H](COS(C)(=O)=O)CC2=O)cc1` yielded a melting point of 108 to 109 °C.
With `N#CCCN(N)c1cc2ccccc2[nH]1` the melting point was 120 to 122 °C.
For `Cc1scnc1-c1cc(C(C)(C)C)c(O)c(C(C)(C)C)c1`, the melting point was 128 to 130 °C.
In the case of `O=C(NCC1CCN(CC2(C(=O)O)CCCCC2)CC1)N1C(=O)C2(CCCC2)c2ccccc21`, the melting point is reported as 160 °C.
With `N#Cc1c[nH]c2cc3ccccc3cc2c1=O` the melting point was over 260 °C.
`CCOC(=O)CC(=O)Nc1cccc(F)c1CO` showed a melting point of 91 °C.
Work on `CCCc1nnc2c(=O)n(C)c3ccc(Cl)cc3n12` yielded a melting point of 265 to 266 °C.
With `C=CCOP1(=S)OCc2cc(C)cnc2O1` (stereo not given) the melting point was 79 to 80 °C.
`CC(=O)c1cc(F)ccc1Oc1nc2ccc(N=[N+]=[N-])cc2cc1Cc1ccccc1` showed a melting point of 127 to 130 °C.
Molecule `CC(C)(C)OC(=O)Nc1cc(OCC#N)c(-c2ccc(F)cc2)cc1N` has a melting point of 118 to 119 °C.
With `Cc1cc(Cl)c([N+](=O)[O-])c(Cl)n1` the melting point was 69 to 70 °C.
For `COc1ccc(Oc2cc3c(cc2Cl)C=C(C(=O)O)C(C(F)(F)F)O3)cc1` (stereo not given), the melting point was 213 to 214 °C.
`COc1cccc(Sc2ccccc2CC(=O)O)c1` gave a melting point of 63 to 65 °C.
`CS(=O)(=O)c1c(C(=O)c2cnoc2C2CC2)ccc2c1OC(F)(F)O2` showed a melting point of 162 to 163 °C.
In the case of `Cc1cc(OCC(=O)Nc2cc(C(=O)O)ccc2Cl)ccc1C(C)C`, the melting point is reported as 174 to 175 °C.
`COc1ccc(CNN2C(=O)CC(C)c3cnc(SC)nc32)cc1Cl` (stereo not given) showed a melting point of 118 to 120 °C.
`CCCCCCCCCCCCNC(=O)c1cc(-c2cccc(C(F)(F)F)c2)c(OCCO)c(-c2cccc(C(F)(F)F)c2)c1` gave a melting point of 154 to 158 °C.
In the case of `COc1cc(C=O)c(Br)c(OC)c1OC`, the melting point is reported as 69 °C.
For `Nc1nc(N)c2ncn(C3OC(COCc4ccccc4)C(OCc4ccccc4)C3OCc3ccccc3)c2n1` (stereo not given), the melting point was 158 to 159 °C.
Molecule `CNC(=O)Oc1ccc(NC=O)c2c1CCCC2` has a melting point of 165 to 166 °C.
With `CC(C)(CC(O)(C(=O)Nc1ccccc1)C(F)(F)F)c1cc(F)ccc1O` (stereo not given) the melting point was 124 to 126 °C.
`Cc1cc(C)c2c3ccccc3c(=O)n(CCN(C)C)c2n1` gave a melting point of 128 to 130 °C.
`Cc1cccc(CNc2ncnc3nc[nH]c23)c1O` gave a melting point of 276 to 277 °C.
Work on `COc1cc(Cc2cnc(NCCO)nc2N)cc(OC)c1OC` yielded a melting point of 146 °C.
With `CC(C)(C)OC(=O)NCC(=O)NC(Cc1ccc(O)cc1)C(=O)NC(CCCCN)C(=O)O` (stereo not drawn) (Boc-Gly-Tyr-Lys-OH; configuration not given here) the melting point was over 200 °C.
`O=c1[nH]c2c(n3ccnc13)Cc1ccccc1-2` showed a melting point of 350 °C.
`O=C(O)c1cn(-c2ccnc3ccccc23)c2ccc(F)cc12` gave a melting point of 148 °C.
`CC(C)(C)OC(=O)CON=C(C(=O)OC(c1ccccc1)c1ccccc1)c1ncsn1` gave a melting point of 139 to 141 °C.
`O=C1CCC(N2C(=O)c3ccc(CNC(=O)NC4CCCCC4)cc3C2=O)C(=O)N1` (stereo not given) showed a melting point of 208 to 210 °C.
Work on `CC(C)(C)NS(=O)(=O)c1ccccc1CCO` yielded a melting point of 43 to 45 °C.
For `Cc1cn2cccc(C=Cc3ccccc3)c2n1`, the melting point was 101 to 105 °C.
In the case of `CCOC(=O)c1cnc(O)c2c(C)n[nH]c12`, the melting point is reported as 310 °C.
Molecule `Cc1ccc(C2=Cc3cc(C(=O)Nc4ccc(CN(C)C5CCOCC5)cc4)ccc3OC2)cc1` has a melting point of 230 to 235 °C.
`CNCC(O)C(Oc1ccc2c(c1)OCO2)c1ccccc1` (stereo not given) showed a melting point of 100 to 122 °C.
`CCCCNC(=O)NCCOc1ccc2c(ccn2Cc2ccc(Cl)cc2)c1` gave a melting point of 163 to 164 °C.
In the case of `CC(=O)Nc1cccc(Oc2c(N)cc(C(=O)O)cc2S(N)(=O)=O)c1`, the melting point is reported as 295 °C.
`CC(CO)n1cnc2cnc3ccccc3c21` (stereo not given) gave a melting point of 170 to 174 °C.
In the case of `COc1cc2c(c3ccccc13)Nc1ccccc1S2`, the melting point is reported as 168 to 170 °C.
Molecule `O=[N+]([O-])c1ccc2oc(-c3ccccc3)cc2c1` has a melting point of 159 °C.
`O=C(O)CCCCC1NC(=O)OC1=O` (stereo not given) gave a melting point of 102 to 104 °C.
`Cc1nc(NC(=O)c2ccccc2)sc1C(=O)NCC1CC1` gave a melting point of 163 to 166 °C.
Molecule `CN1CCN(c2cc(N)c([N+](=O)[O-])cc2F)CC1` has a melting point of 154 to 155 °C.
With `CSc1[nH]c(-c2ccccc2C)cc1C#N` the melting point was 148 to 149 °C.
Work on `O=C(O)c1ccccc1N1CCN(CC(O)COc2ccc3c(c2)OCO3)CC1` (stereo not given) yielded a melting point of 229 to 231 °C.
`COc1ccc(C)c(O)c1` gave a melting point of 34 to 35 °C.
Work on `COc1cc(Nc2nc3cccc(-c4ccc(CN)cc4)c3o2)cc(OC)c1OC` yielded a melting point of 208 to 211 °C.
`CC(=O)c1ccc(S(=O)(=O)NCc2ccncc2)cc1` gave a melting point of 162 to 167 °C.
With `CCCOc1ccccc1-c1nc2nc(NCCOC)ncc2c(=O)[nH]1` the melting point was 193 to 194 °C.
Work on `CC(C)(C)OC(=O)N1CCn2c(-c3ccccc3)cc(C#N)c2C1` yielded a melting point of 124 to 126 °C.
For `OC1CCN(c2ccc(Br)cn2)CC1`, the melting point was 91 to 93 °C.
`CCOc1ccc2c(c1)n(C1CCCCC1)c(=O)n2S(=O)(=O)c1ccc([N+](=O)[O-])cc1OC` gave a melting point of 162 °C.
`C1=C(c2c[nH]c3ccccc23)CCN(CC2CCc3ccccc3O2)C1` (stereo not given) gave a melting point of 171 to 173 °C.
For `CC1OC(=S)Nc2ccc(-c3cccc(F)c3)cc21` (stereo not given), the melting point was 173 to 174 °C.
Molecule `Cc1c(Br)c(=O)n(C2CCCC2)c2nc(Nc3ccc(N4CCOCC4)nc3)ncc12` has a melting point of 254 to 256 °C.
In the case of `CCN(CC)c1ccncc1NC(=S)NC1CCCCC1`, the melting point is reported as 119 to 121 °C.
Molecule `CN1CCN(c2nnc3c4ccccc4c(Cl)cn23)CC1` has a melting point of 150 to 153 °C.
`CCOC(=NC(=O)c1ccco1)N1Cc2ccccc2-c2ccccc2C1` gave a melting point of 87 to 92 °C.
`Cc1cc(-c2c3ccccc3c(Br)c3sc(C)c(C)c23)cc(C)c1OS(=O)(=O)c1ccc(C(=O)OC(C)(C)C)c(O)c1` showed a melting point of 168 to 172 °C.
`CN(C)Cc1ccc(-c2cc3c(Nc4ccc(OCc5ccccc5)cc4)ncnc3[nH]2)cc1` showed a melting point of 272 to 274 °C.
`COc1ccc(-n2cc(C(=O)O)cn2)cc1` showed a melting point of 235 to 237 °C.
`Cn1c(Nc2cccc(C(F)(F)F)c2)nc2c(-c3cccc(C(=O)NCCO)c3)cccc21` showed a melting point of 235 to 236 °C.
Molecule `O=C1c2ccccc2N(Cc2cccs2)C2=NCCN12` has a melting point of 124 to 127 °C.
With `O=C(O)CCCC(=O)N1C2CCC(C2)C1C(=O)O` (stereo not given) the melting point was 155 to 159 °C.
For `CN(C)NC(=O)N1CCC(Br)C1=O` (stereo not given), the melting point was 78 to 79 °C.
With `CC(C)(C)C(=O)CC(=O)c1ccccc1` the melting point was 43 to 45 °C.
With `O=C(Cc1cccnn1)c1ccc(F)cc1F` the melting point was 116 to 118 °C.
`COC(=O)[C@H](Cc1ccc(CC(=O)O)c(C2SCCS2)c1)NC(C)=O` gave a melting point of 113 to 119 °C.
`O=C(O)c1ccc(Cn2cnc3ccc(Cl)c(C(=O)O)c32)cc1` gave a melting point of 291 to 292 °C.
For `CN(C)/C=C/C(=O)c1ccc(C(F)(F)F)cc1`, the melting point was 96.5 to 98 °C.
With `Cc1ccc(-c2ccccc2)cc1Cn1c(C)nn(C)c1=O` the melting point was 139 °C.
In the case of `CCc1ccc(Cc2cc(C(=O)OC)ccc2O)cc1`, the melting point is reported as 134 to 137 °C.
In the case of `CCc1c(OC)nc2nc(C(=N)NO)cn2c1C`, the melting point is reported as 249 to 250 °C.
Work on `CNC(=O)C(NC(=O)Nc1n[nH]c(=S)s1)c1ccccc1` (stereo not given) yielded a melting point of 240 to 241 °C.
In the case of `CSc1cnc2cc(-c3ccccc3Cl)sc2c1O`, the melting point is reported as 270 to 273 °C.
Work on `Cc1cc(N)nc(N)n1` yielded a melting point of 183 °C.
`O=C(c1ccc(CBr)cc1)c1ccc(CBr)cc1` showed a melting point of 118 to 119 °C.
With `Cc1nc2c(N[C@@H]3c4ccccc4C[C@H]3O)cc(C(=O)O)cn2c1C` (relative stereo) the melting point was 246 to 249 °C.
`O=Cc1cccc2c(Br)c3ccccc3cc12` gave a melting point of 134 to 136 °C.
Molecule `COC(=O)c1ccccc1S(=O)(=O)NC(=O)Nc1nc(F)cc(OC(F)(F)F)n1` has a melting point of 157 to 161 °C.
For `Cc1ccccc1C(=O)P(=O)(c1ccccc1)c1ccccc1`, the melting point was 107 °C.
In the case of `CCOC(=O)c1ccn2nccc2n1`, the melting point is reported as 114 to 115 °C.
For `O=[N+]([O-])c1ccc(N2CCN(Cc3ccccc3)CC2)nc1CS(=O)(=O)c1ccccc1`, the melting point was 175 to 176 °C.
`O=C(Nc1cccnc1)N1CCN(c2nccc(-c3c(F)cccc3F)n2)CC1` gave a melting point of 185 to 186 °C.
Molecule `COc1c(OC)c(OC)c2c(=O)cc(-c3ccc(OCc4ccccc4)cc3)oc2c1OC` has a melting point of 132 to 134 °C.
For `O=C(NC(=O)N(SC(Cl)(Cl)Cl)c1ccc(C(F)(F)F)cc1)c1c(F)cccc1F`, the melting point was 129 to 130 °C.
In the case of `O=C(O)c1ccc2nc(/C=C/c3ccccc3)cc(=O)n2c1`, the melting point is reported as 293 to 295 °C.
For `CCOC(=O)C(=NO)C(=O)OCC`, the melting point was 86.5 to 88 °C.
For `C=C1C2=C(CCCC2)C(=O)N1c1ccc(Cl)cc1F`, the melting point was 84 to 85.5 °C.
`COc1nc2cc(F)c(Cl)c(N)c2nc1OC` showed a melting point of 199 to 200 °C.
Molecule `CC(=O)N=C(OC(C)=O)N1CCSC1c1ccccc1OCCN1CCN(c2ccccc2)CC1` (stereo not given) has a melting point of 120 to 124 °C.
`Nc1c(Cl)cc(-c2nn(C3CCN(Cc4ccc(C(F)(F)F)cc4)CC3)c(=O)o2)c2c1OCCO2` showed a melting point of 198 °C.
With `Cn1cccc1-c1cc2cccnc2[nH]1` the melting point was 183 °C.
Molecule `CCc1c(OCc2ccc(Cl)cc2)cnn(C(C)(C)C)c1=O` has a melting point of 86 to 88 °C.
`CSC1=CC2=CN(O)NN2C(Cl)=N1` gave a melting point of 256 to 257 °C.
In the case of `COc1cc(N)ccc1OCCCN1CCN(c2ccccc2)CC1`, the melting point is reported as 112 to 113 °C.
For `Cc1ccc(-c2nc(Cl)cc(Cl)n2)cc1`, the melting point was 84 to 85 °C.
For `OC1(C#Cc2ccc(Br)cn2)CN2CCC1CC2` (stereo not given), the melting point was 194 to 198 °C.
Work on `CNCc1ccc(S(C)(=O)=O)c(S(=O)(=O)NC(C)(C)C)c1` yielded a melting point of 76 to 78 °C.
`CCC(CC)OC(=O)c1ccc(C(=O)NS(=O)(=O)c2ccc(C(=O)NCCc3ccccc3)cc2)cn1` gave a melting point of 234 to 235 °C.
`O=C1c2ccccc2C(=O)N1CCn1nnc(C(F)(F)F)n1` gave a melting point of 98 to 99.5 °C.
Work on `Cc1nc(C)n(-c2cc([C@@H]3C[C@H]3c3nc4ccccc4n3C)nc(N)n2)n1` (relative stereo) yielded a melting point of 120 to 122 °C.

Reference: a melting point compilation (Tetko et al.; mined from patent text by program, amines drawn as free bases though some values may be those of a salt)
